Assay results: patent US9925185B1, “Treatment and prevention methods for mammalian neurosensory hair cells loss” (Creighton University, priority 2014, dated 2018)

Experiments:
[1] = test system: HEI-OC1 cells; assay type: cell-based; details: 24 hours
Procedure: As previously done for HT 1080 and N2a cells, the potential cytotoxicity of quinoxaline was measured in HEI-OC1 cells. HEI-OC1 cells were treated with a crescent dosage of quinoxaline (i.e., 200 nM, 500 nM, 1 μM, 10 μM, 50 μM) for 24 hours and submitted to MIT analyses.

[2] = test system: cisplatin-treated HT 1080 cells; assay: Protective potential of quinoxaline pre-treatment on cisplatin-treated HT 1080 cells; assay type: cell-based, human; details: quinoxaline pre-treatment 1 hour, then 100 μM cisplatin 24 hours
Procedure: (§1) Cytotoxicity effects for each drug were measured by the colorimetric MTT assay. The MTT assay includes a yellow tetrazole that is reduced to purple formazan in living cells. In this implementation, solubilization solution (e.g., dimethyl sulfoxide, an acidified ethanol solution, or a solution of the detergent sodium dodecyl sulfate in diluted hydrochloric acid) was added to dissolve the insoluble purple formazan product into a colored solution. The absorbance of this colored solution was quantified by measuring at a certain wavelength (e.g, between 500 and 600 nm) by a spectrophotometer where the degree of light absorption depends on the solvent. The MTT assay can provide a useful measure of cell viability and proliferation. To quantify cytotoxicity, 10 μl of 10 mg/ml of MTT reagent was added to a well containing cells, and the cells were incubated at 37° C. for 4 hours. The supernatant was aspirated and the purple-colored formazan product was dissolved in 100 μl of DMSO. Absorbance was measured at 590 nm. The average of triplicate wells was taken for each concentration of the drug, and cell viability was calculated by substituting the corresponding mean absorbance values using the following equation: […]
(§2) Cells were plated at a density of 20,000 cells per well overnight, followed by a pretreatment with varying concentrations of quinoxaline for one hour. […]

[3] = test system: cisplatin-treated HEI-OC1 cells; assay: Protective potential of quinoxaline pre-treatment on cisplatin-treated HEI-OC1 cells; assay type: cell-based
Procedure: HEI-OC1 cells were plated at a density of 20,000 cells per well overnight, followed by a pre-treatment with varying concentrations of quinoxaline (i.e., 200 nM, 1 μM, 10 μM, and 50 μM) for one hour.

[4] = test system: cochlear hair cells (organ of Corti); assay: In vivo chemoprotective and proliferative effects on cochlear hair cells of cisplatin-treated mice; details: C57BL/6 mice
Procedure: The inner ear neurosensory epithelia, the organ of Corti (OC), were analyzed. FIGS. 4A through 4D illustrate the outer hair cells (OHCs) and inner hair cells (IHCs) in the middle turn of the cochlea of adult C57BL/6 mice submitted to different treatments. The control group was the untreated cochlea, illustrated in FIG. 4A.

[5] = test system: cisplatin-treated N2a cells; details: 1 μM quinoxaline pre-treatment, then 100 μM cisplatin
Procedure: as §1, §2

[6] = test system: HT 1080 cells
Procedure: (§3) Cytotoxicity effects for each drug were measured by the colorimetric MTT assay. The MTT assay includes a yellow tetrazole that is reduced to purple formazan in living cells. In this implementation, solubilization solution (e.g., dimethyl sulfoxide, an acidified ethanol solution, or a solution of the detergent sodium dodecyl sulfate in diluted hydrochloric acid) was added to dissolve the insoluble purple formazan product into a colored solution. The absorbance of this colored solution was quantified by measuring at a certain wavelength (e.g, between 500 and 600 nm) by a spectrophotometer where the degree of light absorption depends on the solvent. The MTT assay can provide a useful measure of cell viability and proliferation. To quantify cytotoxicity, 10 μl of 10 mg/ml of MTT reagent was added to a well containing cells, and the cells were incubated at 37° C. for 4 hours. The supernatant was aspirated and the purple-colored formazan product was dissolved in 100 μl of DMSO. Absorbance was measured at 590 nm. The average of triplicate wells was taken for each concentration of the drug, and cell viability was calculated by substituting the corresponding mean absorbance values using the following equation:
(§4) A T-test (*=p<0.01; 0 μM=untreated cells) was used to compare toxicity between the two drugs at different concentrations.

[7] = test system: N2a cells
Procedure: as §3, §4

[8] = test system: HEI-OC1 cells; assay: CYQUANT cell proliferation assay (DNA content) in HEI-OC1 cells; assay type: cell-based; details: 200 nM, 500 nM, 1 μM, 5 μM for 24 hours, t-test p<0.001, most noticeable at 200 and 500 nM
Procedure: In an implementation, HEI-OC1 cells were treated with different concentrations (e.g., 200 nM, 500 nM, 1 μM, and 5 μM) of quinoxaline for 24-hours. Untreated cells were used as control groups. To quantify potential changes in cell proliferation following the treatment, DNA isolated from treated and untreated cells was submitted to CYQUANT analysis (Invitrogen, Grand Island, N.Y.), following the manufacturer's instructions for cell proliferation assay. The CYQUANT assay is based on the principle that cell number is proportional to the measurement of cellular DNA content. However, the use of the CYQUANT assay is offered by way of example only and is not meant to be restrictive of the present disclosure. In other embodiments, other types of cell proliferation assays can be used to quantify potential changes in cell proliferation. FIG. 3B illustrates the DNA content of untreated cells and quinoxaline-treated cells. […] Quinoxaline's effect in cell proliferation was most noticeable when cells were treated with lower concentrations (i.e., 200 nm and 500 nM) of the drug.

c1ccc2nccnc2c1 [quinoxaline]
cell death ([1]; HEI-OC1, dosages higher than 10 μM): smaller, but quantifiable cell death
cell proliferation ([1]; HEI-OC1, lower doses of quinoxaline): increase in cell proliferation
sensitivity of HEI-OC1 cells ([1]; quinoxaline concentrations higher than 5 μM): particularly sensitive
overall cytotoxicity versus 100 μM cisplatin only [2]: significantly reduced overall cytotoxicity
survival rate ([3]; 200 nM quinoxaline 1 hour pre-treatment + 200 μM cisplatin 24 hours): 25%
survival rate ([3]; 1 μM quinoxaline 1 hour pre-treatment + 200 μM cisplatin 24 hours): 40%
cell survival ([3]; pre-treated with higher than 10 μM quinoxaline + 200 μM cisplatin): No statistically significant differences in cell survival
cell proliferation (numbers of supernumerary cells) ([4]; low doses (e.g., 15 mg)): increase in the numbers of supernumerary cells
supernumerary myosin VIIa-positive cells at the IHC region ([4]; quinoxaline pre-treated ears): supernumerary myosin VIla-positive cells were observed
myosin VIIa-positive hair cells in middle turn of cochlea ([4]; quinoxaline pre-treatment + cisplatin 20 mg/Kg, versus cisplatin only): myosin VIla-positive hair cells were still observed
cell proliferation [5]: promoted their proliferation
cytotoxicity [6]: consistently lower than that of cisplatin
effect on cell proliferation (total number of cells) ([6]; HT 1080 cells, 0.5 μM): modest, but quantifiable, positive effect on cell proliferation
cell response compared with HT 1080 cells [7]: No statistically significant differences
DNA content (cell proliferation) versus untreated cells [8]: statistically significant increase in DNA content

N.N.[Cl][Pt][Cl] [cisplatin, reference compound]
cell response compared with HT 1080 cells [7]: No statistically significant differences
